In general, melting point refers to the temperature, or range, at which the solid turns liquid.

Drawing on patent publication US20060052344A1, “Heterocyclic silicon compounds and their use in the treatment of diseases or conditions associated with gnrh (gonadotropin-releasing hormone)” (priority 2002, published 2006), this text covers melting point for one compound.

Values joined by “and” are separate entries in the source; they are usually repeats but may differ in a detail not shown here. Identical values can stand only once.

As to `COc1cc(OC)c(NC(=O)c2ccc(Cc3cc4c(cc3C)[Si](C)(C)CC[Si]4(C)C)o2)c(OC)c1`, the melting point is 139 °C and 139 to 140 °C.
